One molecule from patent US9873693B2 (Sunesis Pharmaceuticals, Inc., priority 2006, dated 2018) can be followed below.

One assay concerns Phospho-T308 Akt. Nature of the assay: Phospho-T308 Akt detection using immunoblot (western blot) in PC-3 cells. Format: cell-based. The following applies: 2 μM or 5 μM, concentration not given. The method, boiled down:
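PC-3 prostate cells, cultured overnight in F12K plus 10% FBS, were treated for 2 h at 37 °C in serum-free medium with compound A (1000× DMSO dilutions). Lysate protein was immunoblotted with anti-phospho-Akt Thr308. Bands were quantified by background-subtracted densitometry, giving EC50 by non-linear regression and percent decrease at 2 μM and 5 μM.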

The target of the next assay is full-length PDK1 (Homo sapiens (Human), UniProt O15530). Nature of the assay: PDK phosphorylation of AKT and PKC-PIFtide in presence of PIP3 vesicles. Format: biochemical. The settings on record: substrates PKC-PIFtide vs AKT2. The method, then:
PDK phosphorylation of two different substrates, AKT and PKC-PIFtide, was measured in presence of pre-formed phophoinositol lipid PIP3 vesicles. 5 nM full-length PDK1 and was incubated with 100 nM substrate (unphosphorylated, full-length AKT2 or PKC-PIFtide, Invitrogen cat#P2925) in presence of test compound or DMSO at room temperature for 3 hours. Final buffer conditions were 10 mM Tris pH 7.5 buffer containing 10 mM MgCl2, 0.002% Triton X-100, 1 mM DTT, 0.2 mg/ml BSA, 10 uM PtdIns(3,4,5)P3 (Matreya, Inc), 100 uM DOPC:DOPS (Avanti Polar Lipids), and 0.5 uCi γ^33P-ATP (3000 Ci/mmol, Perkin-Elmer.)
Kinase reactions were stopped with addition of 50 uM non-labelled ATP and 5 mM EDTA, then acidified with 0.5% final concentration phosphoric acid. Labeled proteins were collected in Whatman P81 filter plates and washed with three 150 ul volumes of 0.5% phosphoric acid.
Lipid vesicles were pre-formed as follows. 15 mg (3 ampules) DOPC:DOPS was resuspended in 898 ul 10 mM HEPES pH 7.4. 1 mg PIP3 was resuspended in 1000 ul 10 mM HEPES pH 7.4. 964 ul of PIP3 was mixed with 800 ul DOPC:DOPS and diluted with 18.2 ml 10 mM HEPES pH 7.4 and mixed by vortexing. The lipid mixture was subjected to 5 cycles of freeze/thaw using liquid nitrogen and a 50° C. water bath. Aliquot of lipids were flash frozen and stored at −20° C.

Sequence of full-length PDK1 (O15530 whole entry): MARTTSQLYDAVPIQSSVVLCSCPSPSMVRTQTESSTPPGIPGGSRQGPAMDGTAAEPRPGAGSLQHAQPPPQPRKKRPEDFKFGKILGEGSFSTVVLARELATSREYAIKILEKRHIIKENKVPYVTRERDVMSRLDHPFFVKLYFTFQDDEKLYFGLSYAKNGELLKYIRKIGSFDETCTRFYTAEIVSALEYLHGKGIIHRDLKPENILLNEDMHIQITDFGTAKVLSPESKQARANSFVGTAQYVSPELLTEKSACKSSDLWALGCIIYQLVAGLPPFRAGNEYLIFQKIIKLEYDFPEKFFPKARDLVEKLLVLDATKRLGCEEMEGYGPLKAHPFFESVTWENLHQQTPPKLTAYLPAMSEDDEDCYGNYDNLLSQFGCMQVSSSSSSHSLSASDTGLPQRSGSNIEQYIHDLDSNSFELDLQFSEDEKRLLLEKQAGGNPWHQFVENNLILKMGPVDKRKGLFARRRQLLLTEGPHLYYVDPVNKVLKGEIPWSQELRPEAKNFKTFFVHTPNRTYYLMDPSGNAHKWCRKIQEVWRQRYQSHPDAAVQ

Consider `O=C(NCc1nc(-c2c[nH]c3ncccc23)cs1)c1cccn(Cc2ccc(F)c(F)c2)c1=O` [Cpd 112], for which the “Percent Inhibition of phospho-Akt (308) By Western” value in the assay on Phospho-T308 Akt is given as “d (inhibition of less than 25%)”. The “Ratio of PIP3 IC50 with PKCtide to PIP3 IC50 with AKT” value on full-length PDK1 is recorded as 71.9.
